Experimental data published in ChEMBL document CHEMBL1137996, “Design, synthesis, and activity of 4-quinolone and pyridone compounds as nonthiol-containing farnesyltransferase inhibitors” (Bioorg Med Chem Lett, 2004).

Legend:
[1] = biological target: Protein farnesyltransferase (Bos taurus, UniProt P29702+P49355); test: Inhibition of Bovine farnesyltransferase (FTase); assay type: protein-complex assay
[2] = biological target: Geranylgeranyl transferase type I (Bos taurus, UniProt P29702+Q5EAD5); test: Inhibition of Bovine geranylgeranyltransferase (GGT); assay type: protein-complex assay
[3] = biological target: T1, Protein farnesyltransferase (Mus musculus, UniProt Q61239+Q8K2I1); test: Inhibition of Ras farnesylation in H-Ras transformed NIH3T3 cells at 100 nM; assay type: functional, cell-based
[4] = biological target: T1, Protein farnesyltransferase; test: Inhibition of Ras farnesylation in H-Ras transformed NIH3T3 cells; assay type: functional, cell-based

Structure (SMILES) | IC50 [1] [nM] | IC50 [2] [nM] | Inhibition [3] [%] | Inhibition ([3]; nih3t3) [%] | EC50 [4] [nM] | EC50 ([4]; nih3t3) [nM]
Cn1cncc1C(NC(=O)c1cn(C)c(=O)cc1-c1cccc(Cl)c1)c1ccc(C#N)cc1 (stereo unspecified) | 685 | – | – | – | – | –
Cn1cncc1C(O)(c1ccc(Cl)cc1)c1ccc2c(=O)c(C#N)cn(-c3cccc(Cl)c3)c2c1 (stereo unspecified) | 12 | 16000 | 51 | – | – | –
NC(=O)N1CCC(CC(=O)N2CCC([C@H]3c4ncc(Br)cc4CCc4cc(Cl)cc(Br)c43)CC2)CC1 [LONAFARNIB] | 8.3 | > 10000 | – | – | 100 | –
Cn1cncc1[C@@](N)(c1ccc(Cl)cc1)c1ccc2c(c1)c(-c1cccc(Cl)c1)cc(=O)n2C [TIPIFARNIB] | – | – | – | – | – | 1.6

Now from value to compound, other results behind:

IC50 [1] [nM] | IC50 [2] [nM] | Inhibition [3] [%] | Inhibition ([3]; nih3t3) [%] | Structure (SMILES) | EC50 [4] [nM] | EC50 ([4]; nih3t3) [nM]
7.9 | > 10000 | – | – | N#Cc1ccc(Cn2cncc2CNCc2cc(=O)c(C#N)cn2-c2cccc(Cl)c2)cc1 | – | –
17 | > 10000 | 21 | – | Cn1c(CNCc2cncn2Cc2ccc(C#N)cc2)c(-c2cccc(Cl)c2)cc(C#N)c1=O | – | –
12 | > 10000 | – | 4 | Cn1cncc1C(OCc1cc(=O)c(C#N)cn1-c1cccc(Cl)c1)c1ccc(C#N)cc1 (stereo unspecified) | – | –
